Test results as given in US7491794B2, “Macrocyclic compounds as inhibitors of viral replication” (Intermune, Inc., priority 2003, dated 2009).

How the values were obtained:
[1] = from 1R-{[1-(2S-tert-Butoxycarbonylamino-non-8-enoyl)-4R-hydroxy-pyrrolidine-2S-carbonyl]-amino}-2S-vinyl-cyclopropanecarboxylic acid ethyl ester; rcm bond; 15-membered ring; Hoveyda catalyst (0.25 equiv); DCE; 10.0 mM; 50.0 °C
[2] = from C=CCCCCC[C@H](NC(=O)OC(C)(C)C)C(=O)N1C[C@H](O)C[C@H]1C(=O)N[C@]1(C(=O)OCC)C[C@H]1C=C; rcm bond; Hoveyda catalyst; DCE; 10.0 mM; 50.0 °C; 16.0 h
[3] = tested on: HCV sub-genomic replicon, GS4.3; test: Quantitation by ELISA of NPTII in the HCV sub-genomic replicon, GS4.3, Section B; assay type: cell-based; conditions: Hepatitis C virus; read-out: replicon EC50 value
Outline: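 GS4.3 cells (HuH-7 carrying HCV 1377/NS3-3′ replicon) were treated 72 h at 37 °C with inhibitors in 3-fold dilutions, 1% DMSO, no G418. Lysate NPTII was measured by ELISA (TMB, 450 nm). Signal as % of DMSO control; EC50 from 4-parameter fit.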

[4] = Rat hepatocyte incubation assay (stability in vitro); assay type: in vitro ADME; conditions: rat hepatocytes
[5] = Dog hepatocyte incubation assay (stability in vitro); assay type: in vitro ADME; conditions: dog hepatocytes
[6] = Human hepatocyte incubation assay (stability in vitro); assay type: in vitro ADME; conditions: human hepatocytes
[7] = tested on: panel of other serine proteases; test: Selectivity against a panel of other serine proteases; assay type: biochemical
Cytochrome P450 isoforms = test: Inhibition of Cytochrome P450 isoforms; assay type: in vitro ADME; conditions: highest concentrations tested (10 μM)
hERG channel = hERG channel (Homo sapiens, UniProt Q12809); test: Inhibition of hERG channel activity; conditions: highest concentrations tested (10 μM)
[8] = in vivo, po
Method: Compounds were initially synthesized and tested for potency (IC50) in a fluorogenic NS3/4 protease assay and cell-based HCV replicon system as described in Example 8 above. […] These leads were then further optimized for drug-like physical properties and administered in oral doses in Rattus sp. to assess liver, heart and plasma concentrations.
Compounds were tested for liver clearance over time following a single 3 mg/kg oral dose in rats.
Compounds were initially synthesized and tested for potency (IC50) in a fluorogenic NS3/4 protease assay and cell-based HCV replicon system as described above. […] These leads were then further optimized for drug-like physical properties and administered in oral doses in Rattus sp. to assess liver, heart and plasma concentrations.

[9] = Toxicological assessment in rats, up to 30 mg/kg orally BID for seven days; conditions: Rattus sp.

Sequence of hERG channel (Q12809 whole entry): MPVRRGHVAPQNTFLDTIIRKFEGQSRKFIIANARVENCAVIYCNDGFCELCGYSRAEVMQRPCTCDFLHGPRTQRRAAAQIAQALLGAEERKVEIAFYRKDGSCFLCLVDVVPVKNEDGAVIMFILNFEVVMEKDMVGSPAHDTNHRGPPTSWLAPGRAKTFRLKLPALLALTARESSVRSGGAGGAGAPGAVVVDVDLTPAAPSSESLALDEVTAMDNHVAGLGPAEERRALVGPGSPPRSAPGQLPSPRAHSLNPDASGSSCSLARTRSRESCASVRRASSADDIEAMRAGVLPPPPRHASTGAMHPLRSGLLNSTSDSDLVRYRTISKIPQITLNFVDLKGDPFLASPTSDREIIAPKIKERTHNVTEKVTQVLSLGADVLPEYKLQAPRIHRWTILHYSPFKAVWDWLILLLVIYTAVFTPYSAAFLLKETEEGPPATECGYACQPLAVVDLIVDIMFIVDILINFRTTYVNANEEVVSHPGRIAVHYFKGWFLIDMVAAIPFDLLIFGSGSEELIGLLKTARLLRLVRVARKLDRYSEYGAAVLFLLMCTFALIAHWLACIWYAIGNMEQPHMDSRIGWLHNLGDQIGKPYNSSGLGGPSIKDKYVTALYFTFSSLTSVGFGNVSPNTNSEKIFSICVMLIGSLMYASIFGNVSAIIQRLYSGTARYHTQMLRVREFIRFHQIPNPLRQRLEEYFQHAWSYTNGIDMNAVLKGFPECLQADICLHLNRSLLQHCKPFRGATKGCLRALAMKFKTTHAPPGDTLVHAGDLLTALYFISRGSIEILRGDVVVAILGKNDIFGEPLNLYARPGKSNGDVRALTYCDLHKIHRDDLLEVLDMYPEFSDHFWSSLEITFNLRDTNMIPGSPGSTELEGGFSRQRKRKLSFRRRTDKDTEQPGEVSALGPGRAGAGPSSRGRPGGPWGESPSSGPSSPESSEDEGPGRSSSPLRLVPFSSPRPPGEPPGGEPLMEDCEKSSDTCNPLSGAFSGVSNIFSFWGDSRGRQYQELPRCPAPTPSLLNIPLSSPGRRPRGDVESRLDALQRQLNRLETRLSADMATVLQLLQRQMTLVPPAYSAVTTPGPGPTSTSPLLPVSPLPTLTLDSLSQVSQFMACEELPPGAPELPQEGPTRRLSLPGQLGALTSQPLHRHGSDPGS

SMILES | ring closure, isolated yield [1] [%] | ring closure, yield of all isomers [2] [%] | EC50 [3] [nM] | stability in vitro in rat hepatocyte incubation assay [4] | stability in vitro in dog hepatocyte incubation assay [5] | stability in vitro in human hepatocyte incubation assay [6] | selectivity against a panel of other serine proteases [7] | inhibition of Cytochrome P450 isoforms (Cytochrome P450 isoforms) | inhibition of hERG channel activity (hERG channel) | heart levels relative to liver concentrations in the same animals [8] | plasma levels relative to liver concentrations in the same animals [8] | safety margin above the presumptive efficacious dose (3 mg/kg) ([9]; 30 mg/kg BID for seven days vs 3 mg/kg) [fold] | mortality, change in weight, abnormalities in clinical chemistries ([9]; 30 mg/kg orally BID for 7 days) | toxicity ([9]; dosed for seven days at 30 mg/kg BID)
CCOC(=O)[C@@]12C[C@H]1C=CCCCCC[C@H](NC(=O)OC(C)(C)C)C(=O)N1C[C@H](O)C[C@H]1C(=O)N2 | 52 | 26 | – | – | – | – | – | – | – | – | – | – | – | –
CC(C)(C)OC(=O)N[C@H]1CCCCC/C=C\[C@@H]2C[C@@]2(C(=O)NS(=O)(=O)C2CC2)NC(=O)[C@@H]2C[C@@H](OC(=O)N3Cc4cccc(F)c4C3)CN2C1=O [AR334191] | – | – | ~2 | exhibited stability | exhibited stability | exhibited stability | high degree of selectivity | no significant inhibition | no significant inhibition | up to two orders of magnitude lower | up to two orders of magnitude lower | ≥ 10 | no mortality, change in weight, or abnormalities in clinical chemistries were observed | did not display toxicity
